Reference: US6346535B1, “Fungicidal mixtures” (American Cyanamid Company, priority 1999, dated 2002)
Read-outs that look alike come from different tables or passages of the source.

Tests used:
Assay type in all cases: in vivo
[1] = tested on: Erysiphe cichoracearum on cucumbers; assay: Greenhouse trial, 4 day residual, Erysiphe cichoracearum on cucumbers; settings: for pest or weed control at 0.4 ppm / pest or weed control at 2 ppm / pest or weed control at 10 ppm / pest or weed control at 50 ppm / pest or weed control at 4 ppm / pest or weed control at 16 ppm / pest or weed control at 64 ppm / pest or weed control at 256 ppm: Golovinomyces cichoracearum, 96 h, read-out: Observed Efficacy
Text: (§1) The fungicides are applied in single treatments, or in a combination comprising a benzophenone of formula I and a compound selected from (A) through (E) as defined above. The compounds are applied in form of an aqueous spray mix obtained from a concentrated formulation or the technical material.
(§2) 1. Seed is planted in 6 cm diameter plastic pots and maintained in the greenhouse.
(§3) 2. When the primary leaf is fully expanded (in the case of cereals) or several leaves are present (in the case of dicots), formulated test compounds are sprayed with a three nozzle overhead fungicide sprayer to near run-off. Alternatively, a single nozzle overhead track sprayer is used for application of the compounds to cereals at a rate of 200 liters/ha (l/ha). Plants are then allowed to air-dry.
(§4) 3. Inoculation precedes treatment in the case of curative evaluations and follows treatment in case of residual evaluations. For inoculation of powdery mildew disease, plants are set up on greenhouse benches with bottom watering mats and inoculated by dusting them with conidia from infected plants. Between inoculation and treatment for curative evaluations and between treatment and inoculation for residual evaluations, plants are maintained in the greenhouse with bottom watering. For inoculation of non-powdery mildew diseases, an aqueous spore suspension of the pathogen is applied to the plant and the plants are kept 1-2 days in a moist infection chamber before being returned to the greenhouse where they are maintained by bottom watering.
(§5) 4. Disease on the foliage as percent leaf area with disease symptoms/signs is evaluated about 7 days after inoculation. In the case of wheat, the tips and bases of the leaves are excluded from the evaluation. [formula]
(§6) 1. Technical compounds are formulated in a solvent/surfactant system consisting of 5% acetone and 0.05% Tween 20 in deionized water. Compounds are dissolved in acetone prior to addition of the water; the Tween 20 can be added through either the acetone or the water. Dilutions are made using the solvent/surfactant system. Formulated compounds are prepared using deionized water.
(§7) Assessments of the diseases took place at the indicated day after the application of the compounds. Per cent infected leaf area infected was evaluated. The efficacy of the compounds/compounds mixtures to control the diseases was calculated by using the formula given above under item 4: […]
(§8) Synergy of a fungicide mixture was determined by comparing the actual (observed) fungicidal activity of the mixture to the expected fungicidal activity of the mixture as calculated using the COLBY formula given hereinabove.

[2] = tested on: Puccinia recondita on wheat; assay: Greenhouse trial, 4 day residual, Puccinia recondita on wheat; settings: for pest or weed control at 4 ppm / pest or weed control at 16 ppm / pest or weed control at 64 ppm / pest or weed control at 256 ppm / pest or weed control at 0.4 ppm / pest or weed control at 2 ppm / pest or weed control at 10 ppm / pest or weed control at 50 ppm: Puccinia recondita, 96 h, read-out: Observed Efficacy; for pest or weed control at 4 ppm / pest or weed control at 16 ppm / pest or weed control at 64 ppm / Observed Efficacy / pest or weed control at 256 ppm: compound alone; for pest or weed control at 0.4 ppm / pest or weed control at 2 ppm / pest or weed control at 10 ppm / pest or weed control at 50 ppm: Table XV (Example 15), 4 day residual; for pest or weed control at 0.4 ppm: dose rate 0.4 ppm; for pest or weed control at 2 ppm: dose rate 2 ppm; for pest or weed control at 10 ppm: dose rate 10 ppm; for pest or weed control at 50 ppm: dose rate 50 ppm
Text: as §1, §2, §3, §4, §5, §6, §7, §8
Fungicidal Efficacy of the Mixture of BP-4+Other Fungicides (4 Day Residual) Against Puccinia recondita on Wheat
Fungicidal Efficacy of the Mixture of BP-4+Myclobutanil (4 Day Residual) Against Puccinia recondita on Wheat

[3] = tested on: Leptosphaeria nodorum on wheat; assay: Greenhouse trial, 4 day residual, Leptosphaeria nodorum on wheat; settings: for pest or weed control at 4 ppm / pest or weed control at 16 ppm / pest or weed control at 64 ppm / pest or weed control at 256 ppm: Parastagonospora nodorum, 96 h, read-out: Observed Efficacy
Text: as §1, §2, §3, §4, §5, §6, §7, §8
Fungicidal Efficacy of the Mixture of BP-4+Other Fungicides (4 Day Residual) Against Leptosphaeria nodorum on Wheat

[4] = Table XI, compound alone, dose rate 0.4 ppm
[5] = Table XI, compound alone, dose rate 2 ppm
[6] = Table XI, compound alone, dose rate 10 ppm
[7] = Table XI, compound alone, dose rate 50 ppm
[8] = Table X, compound alone, dose rate 64 ppm
[9] = Table X, compound alone, dose rate 256 ppm
[10] = Table VI, compound alone, dose rate 4 ppm
[11] = Table VI, compound alone, dose rate 16 ppm
[12] = Table VI, compound alone, dose rate 64 ppm
[13] = Table VI, compound alone, dose rate 256 ppm
[14] = Table VIII, compound alone, dose rate 4 ppm
[15] = Table VIII, compound alone, dose rate 16 ppm
[16] = Table VIII, compound alone, dose rate 64 ppm
[17] = Table VIII, compound alone, dose rate 256 ppm
[18] = Table XIV (Example 14), 4 day residual, dose rate 0.4 ppm
[19] = Table XIV (Example 14), 4 day residual, dose rate 2 ppm
[20] = Table XIV (Example 14), 4 day residual, dose rate 10 ppm
[21] = Table XIV (Example 14), 4 day residual, dose rate 50 ppm

Compound: Fc1ccc([C@]2(Cn3cncn3)O[C@H]2c2ccccc2Cl)cc1 (racemic) [Epoxiconazole]
- pest or weed control at 0.4 ppm [1, 4]: 0%
- pest or weed control at 2 ppm [1, 5]: 46%
- pest or weed control at 10 ppm [1, 6]: 68%
- pest or weed control at 50 ppm [1, 7]: 77%

Compound: C[C@@]1(c2ccc(Oc3ccccc3)cc2)OC(=O)N(Nc2ccccc2)C1=O (racemic) [Famoxadone]
- pest or weed control at 4 ppm ([2]; Table IX, dose rate 4 ppm): 45%
- pest or weed control at 16 ppm ([2]; Table IX, dose rate 16 ppm): 80%
- pest or weed control at 64 ppm ([2]; Table IX, dose rate 64 ppm): 92%
- pest or weed control at 4 ppm ([3]; Table X, compound alone, dose rate 4 ppm): 66%
- pest or weed control at 16 ppm ([3]; Table X, compound alone, dose rate 16 ppm): 69%
- pest or weed control at 64 ppm [3, 8]: 80%
- pest or weed control at 256 ppm [3, 9]: 97%

Compound: CC(Oc1ccc(Cl)cc1Cl)C(=O)NC(C)(C#N)C(C)C (stereo not shown) [AC 382042]
- Observed Efficacy [1, 4]: 7%
- Observed Efficacy [1, 5]: 3%
- Observed Efficacy [1, 6]: 14%
- Observed Efficacy [1, 7]: 25%

Compound: CO/C=C(/C(=O)OC)c1ccccc1Oc1cc(Oc2ccccc2C#N)ncn1 [Azoxystrobin]
- Observed Efficacy [1, 10]: 78%
- Observed Efficacy [1, 11]: 96%
- Observed Efficacy [1, 12]: 100%
- Observed Efficacy [1, 13]: 100%
- Observed Efficacy [3, 14]: 84%
- Observed Efficacy [3, 15]: 97%
- Observed Efficacy [3, 16]: 100%
- Observed Efficacy [3, 17]: 100%

Compound: CSC(=O)c1cccc2nnsc12 [BION, acibenzolar]
- Observed Efficacy [1, 10]: 0%
- Observed Efficacy [1, 11]: 0%
- Observed Efficacy [1, 12]: 0%
- Observed Efficacy [1, 13]: 0%
- Observed Efficacy ([2]; Table VII, dose rate 4 ppm): 0%
- Observed Efficacy ([2]; Table VII, dose rate 16 ppm): 0%
- Observed Efficacy ([2]; Table VII, dose rate 64 ppm): 0%
- Observed Efficacy ([2]; Table VII, dose rate 256 ppm): 0%

Compound: O=C1C2CC=CCC2C(=O)N1SC(Cl)(Cl)Cl (stereo not shown) [Captan]
- pest or weed control at 4 ppm ([2]; Table IX, dose rate 4 ppm): 4%
- pest or weed control at 16 ppm ([2]; Table IX, dose rate 16 ppm): 11%
- pest or weed control at 64 ppm ([2]; Table IX, dose rate 64 ppm): 55%
- pest or weed control at 256 ppm ([2]; Table IX, dose rate 256 ppm): 89%
- pest or weed control at 64 ppm [3, 8]: 84%
- pest or weed control at 256 ppm [3, 9]: 90%

Compound: N#Cc1c(Cl)c(Cl)c(Cl)c(C#N)c1Cl [Chlorothalonil]
- pest or weed control at 4 ppm [1, 10]: 0%
- pest or weed control at 16 ppm [1, 11]: 0%
- pest or weed control at 64 ppm [1, 12]: 0%
- pest or weed control at 256 ppm [1, 13]: 1%
- pest or weed control at 4 ppm ([2]; Table VII, dose rate 4 ppm): 0%
- pest or weed control at 16 ppm ([2]; Table VII, dose rate 16 ppm): 0%
- pest or weed control at 64 ppm ([2]; Table VII, dose rate 64 ppm): 0%
- pest or weed control at 256 ppm ([2]; Table VII, dose rate 256 ppm): 31%

Compound: COc1ccc(C(=CC(=O)N2CCOCC2)c2ccc(Cl)cc2)cc1OC [Dimethomorph]
- pest or weed control at 4 ppm [1, 10]: 0%
- pest or weed control at 16 ppm [1, 11]: 0%
- pest or weed control at 64 ppm [1, 12]: 0%
- pest or weed control at 256 ppm [1, 13]: 18%
- pest or weed control at 16 ppm ([2]; Table VII, dose rate 16 ppm): 0%
- pest or weed control at 64 ppm ([2]; Table VII, dose rate 64 ppm): 0%
- pest or weed control at 256 ppm ([2]; Table VII, dose rate 256 ppm): 0%
- pest or weed control at 4 ppm [3, 14]: 1%
- pest or weed control at 16 ppm [3, 15]: 6%
- pest or weed control at 64 ppm [3, 16]: 11%
- pest or weed control at 256 ppm [3, 17]: 14%

Compound: N#Cc1sc2c(=O)c3ccccc3c(=O)c=2sc1C#N [Dithianon]
- pest or weed control at 4 ppm [1, 10]: 0%
- pest or weed control at 16 ppm [1, 11]: 0%
- pest or weed control at 64 ppm [1, 12]: 0%
- pest or weed control at 256 ppm [1, 13]: 0%
- pest or weed control at 4 ppm ([2]; Table VII, dose rate 4 ppm): 4%
- pest or weed control at 16 ppm ([2]; Table VII, dose rate 16 ppm): 16%
- pest or weed control at 64 ppm ([2]; Table VII, dose rate 64 ppm): 84%
- pest or weed control at 256 ppm ([2]; Table VII, dose rate 256 ppm): 95%
- pest or weed control at 4 ppm [3, 14]: 0%
- pest or weed control at 16 ppm [3, 15]: 1%
- pest or weed control at 64 ppm [3, 16]: 37%
- pest or weed control at 256 ppm [3, 17]: 74%

Compound: CCCCCCCCCCCCNC(=N)N [Dodine]
- pest or weed control at 4 ppm [3]: 0%
- pest or weed control at 16 ppm [3]: 6%
- pest or weed control at 64 ppm [3]: 24%
- pest or weed control at 256 ppm [3]: 59%

Compound: N#Cc1c[nH]cc1-c1cccc(Cl)c1Cl [Fenpiclonil]
- pest or weed control at 4 ppm ([2]; Table IX, dose rate 4 ppm): 1%
- pest or weed control at 16 ppm ([2]; Table IX, dose rate 16 ppm): 0%
- pest or weed control at 64 ppm ([2]; Table IX, dose rate 64 ppm): 18%
- pest or weed control at 256 ppm ([2]; Table IX, dose rate 256 ppm): 58%

Compound: CC(Cc1ccc(C(C)(C)C)cc1)CN1CCCCC1 (stereo not shown) [Fenpropidin]
- pest or weed control at 4 ppm [1, 10]: 0%
- pest or weed control at 16 ppm [1, 11]: 6%
- pest or weed control at 64 ppm [1, 12]: 21%
- pest or weed control at 256 ppm [1, 13]: 69%
- pest or weed control at 4 ppm ([2]; Table VII, dose rate 4 ppm): 0%
- pest or weed control at 16 ppm ([2]; Table VII, dose rate 16 ppm): 0%
- pest or weed control at 64 ppm ([2]; Table VII, dose rate 64 ppm): 8%
- pest or weed control at 256 ppm ([2]; Table VII, dose rate 256 ppm): 97%
- pest or weed control at 64 ppm [3, 16]: 0%
- pest or weed control at 256 ppm [3, 17]: 21%

Compound: O=[N+]([O-])c1cc(C(F)(F)F)c(Cl)c([N+](=O)[O-])c1Nc1ncc(C(F)(F)F)cc1Cl [Fluazinam]
- pest or weed control at 4 ppm ([2]; Table IX, dose rate 4 ppm): 0%
- pest or weed control at 16 ppm ([2]; Table IX, dose rate 16 ppm): 6%
- pest or weed control at 64 ppm ([2]; Table IX, dose rate 64 ppm): 22%
- pest or weed control at 256 ppm ([2]; Table IX, dose rate 256 ppm): 80%
- pest or weed control at 64 ppm [3, 8]: 81%
- pest or weed control at 256 ppm [3, 9]: 91%

Compound: COCC(=O)N(c1c(C)cccc1C)C(C)C(=O)OC (stereo not shown) [Metalaxyl]
- pest or weed control at 64 ppm ([2]; Table IX, dose rate 64 ppm): 0%
- pest or weed control at 256 ppm ([2]; Table IX, dose rate 256 ppm): 12%

Compound: CCCC(Cn1cncn1)c1ccc(Cl)cc1Cl (stereo not shown) [Penconazole]
- pest or weed control at 0.4 ppm [1, 18]: 6%
- pest or weed control at 2 ppm [1, 19]: 35%
- pest or weed control at 10 ppm [1, 20]: 37%
- pest or weed control at 50 ppm [1, 21]: 67%
- pest or weed control at 0.4 ppm [2]: 0%
- pest or weed control at 2 ppm [2]: 3%
- pest or weed control at 10 ppm [2]: 10%
- pest or weed control at 50 ppm [2]: 26%

Compound: CC(C)(C)C(O)(CCc1ccc(Cl)cc1)Cn1cncn1 (stereo not shown) [Tebuconazole]
- pest or weed control at 0.4 ppm [1, 4]: 10%
- pest or weed control at 2 ppm [1, 5]: 45%
- pest or weed control at 10 ppm [1, 6]: 79%
- pest or weed control at 50 ppm [1, 7]: 95%

Compound: CC(C)(C)C(O)C(Oc1ccc(Cl)cc1)n1cncn1 (stereo not shown) [Triadimenol]
- pest or weed control at 0.4 ppm [1, 18]: 1%
- pest or weed control at 2 ppm [1, 19]: 21%
- pest or weed control at 10 ppm [1, 20]: 45%
- pest or weed control at 50 ppm [1, 21]: 68%
- pest or weed control at 0.4 ppm [2]: 1%
- pest or weed control at 2 ppm [2]: 21%
- pest or weed control at 10 ppm [2]: 69%
- pest or weed control at 50 ppm [2]: 98%

Compound: Ethirimol
- Observed Efficacy [1, 10]: 50%
- Observed Efficacy [1, 11]: 83%
- Observed Efficacy [1, 12]: 94%
- Observed Efficacy [1, 13]: 100%
- Observed Efficacy ([2]; Table VII, dose rate 16 ppm): 0%
- Observed Efficacy ([2]; Table VII, dose rate 64 ppm): 0%
- Observed Efficacy ([2]; Table VII, dose rate 256 ppm): 0%
